Source: US10073097B2, “Diagnostic assays and methods of treating pneumonia, sepsis and systemic inflammatory response syndrome” (priority 2012, dated 2018)
“Also recorded” adds a separate entry of the source. Residues, ends and D or L forms follow the SMILES beside them. *: point of attachment. Cbz = O=C(OCc1ccccc1)*; CH2F = FC*

Legend:
peritoneal cells = test: NDMP generation by peritoneal cells collected 24 H after TGA treatment, cultured with agonists or inhibitors; type: cell-based, mice; conditions: peritoneal cells 24 H after 3% TGA; for NDMP numbers compared to cells cultured without agent: 8-Br-cAMP 100 μM, H89 20 μM, 6-Bnz-cAMP 100 μM, 8-CPT-2Me-cAMP 100 μM, Y27632 30 μM, PGE2 1 μM, 24 H; for decrease in NDMP generation when compared to cells cultured without inhibitor: ML7 250 μM, Z-VAD-FMK 200 μM, Z-IETD-FMK 30 μM, flow cytometry
Protocol: Experimental Protocol. A biochemical pathway for NDMP formation was investigated. Specifically, proteins associated with F-actin were investigated, as F-actin rearrangement is a terminal step in apoptosis. The role of myosin light chain kinase (hereinafter “MLC K”) in NDMP generation was initially investigated. Peritoneal cells were isolated from peritoneal lavage 24 H after 1 mL 3% TGA injection. Peritoneal cells were cultured with one of the following agonists or inhibitors overnight in a CO2 incubator: 250 μM ML7, a MLCK inhibitor, (Tocris, Bristol, UK), 200 μM Z-VAD-FMK, a caspase 3 inhibitor, (Tocris), 30 μM Z-IETD-FMK, a caspase 8 inhibitor, (Tocris), or 30 μM Z-LEHD-FMK, or a caspase 9 inhibitor, (Tocris). Cells and MPs were collected 24 H following incubation and analyzed using flow cytometry as previously described.
Statistical comparisons were performed using Student t Test (two groups), or one-way ANOVA with Holm-Sidak post-hoc test (more than two groups) using StatView 3.5 (SAS Institute, Cary, N.C.). The mean and standard error of the mean were calculated in experiments containing multiple data points. A value of p≤0.05 was considered statistically significant.
Experimental Protocol. Elucidation of potential signaling pathways involved in NDMP formation was studied. Peritoneal cells were isolated from peritoneal lavage 24 H after 1 mL 3% TGA injection. […] Cells and MPs were collected 24 H following incubation and analyzed using flow cytometry as previously described.

Mouse neutrophils = test: NDMP generation by mouse bone marrow neutrophils treated with TNF-α with or without inhibitors; type: cell-based; conditions: for NDMPs after TNF-α plus caspase 8 inhibitor vs TNF-α alone: WT neutrophils, 25 ng/mL rhTNF-α (TNFr1) or rmTNF-α (TNFr1 and TNFr2)
From the text: Materials and Methods. Male C57BL/6 and TNFr1 KO (stock number: 003242) mice between 6 and 8 weeks of age were obtained from Jackson Labs (Bar Harbor, Me.). Mouse and human TNF-α Recombinant Protein (rmTNF-α and rhTNF-α, respectively) were purchased from Preprotech (Rocky Hill, N.J.). NF-κB inhibitor (BAY 11-7085) and Caspase 8 inhibitor (Z-IETD-FMK) were purchased from R&D systems (Minneapolis, Minn.). The pharmacological agents were solubilized in DMSO (American Bioanalytical, Natick, Mass.). The amount of DMSO was consistent in all samples groups. Neutrophil isolation. Mouse neutrophils from bone marrow were isolated from C57B1/6 mice as previously described. The femurs and tibias were flushed with Hanks' Balanced Salt Solution without calcium & Magnesium (HBSS) (Mediatech, Inc. Manassas, Va., USA). Bone marrow particulate was disaggregated and filtered in a 70 micron filter, then centrifuged at 400×g for 10 min at 23° C. The cells in the pellet were resuspended in HBSS, placed on a 55% Percoll gradient, and centrigued at 100×g for 30 min at 23° C. The pellet was washed once more. The final neutrophil preparation was re-suspended in HBSS. The purity and viability of the neutrophils (90% purity >99% viability, respectively) was determined by flow cytometry. Neutrophil purity was assessed by flow cytometry after cell staining with fluorescently conjugated antibodies to Ly-6G, CD19, CD3 and F4/80 with >99% of the cells negative for F4/80 and CD3. The main cell contaminant in this preparation was due to B cells. Further purification was not conducted by centriguation due to risk of non-specific neutrophil activation or by magnetic beads due to microparticle-sized contaminants introduced by the beads themselves.
Microparticle Generation and Analysis. Isolated neutrophils from bone marrow preparation were plated and cultured for the indicated time at 37° C. with stated treatments. The cell/micropartocle mixture was labeled for Ly-6G and Annexin V without manipulation as previously described. […] Neutrophil derived microparticle numbers were assessed using the neutrophil specific marker, Ly-6G (Clone: 1A8, BD Pharmingen, San Diego, Calif., United States); and Annexin V (BD Pharmingen). […]
Statistical Analysis. […] The mean and standard error of the mean were calculated in experiments containing multiple data points. […]
Using flow cytometry, forward- and side-channels were set to analyze particles using 0.5-, 0.9-, and 3.0-μm latex beads for calibration as previously described (FIG. 22A). […] To enumerate NDMPs, neutrophil and NDMP mixture were analyzed with the neutrophil-specific marker, Ly6G, and the apoptosis marker, annexin V. Vesicles within the 0.3-1.0 μm range that expressed both Ly6G and phosphatidylserine were identified as NDMPs. […]

[1] = tested on: peritoneal cells isolated from septic mice; test: In vitro NDMP generation by peritoneal cells isolated from septic (CLP) mice; type: cell-based
Protocol: Experimental Protocol. Peritoneal lavage cells from mice made septic by cecal ligation and puncture were isolated. The cells were then incubated with or without lipopolysaccharide (hereinafter “LPS”, 100 ng/mL) for […]. MPs from these cultures were then isolated, quantified by bicinchoninic acid assay (hereinafter, “BCA”), and analyzed by fluorescence-activated cell sorting (hereinafter “FACS”).
Experimental Protocol. Peritoneal cells were isolated from septic mice 24 H after CLP. The isolated peritoneal cells were incubated with PBS or 100 ng/mL LPS for 24 H. Samples were analyzed using LSR II flow cytometer and FACS Diva software (BD Biosciences). As shown in FIG. 17(A), latex beads of a predetermined size were used to set the forward and side scatter voltages to best distinguish particles ranging from […].
Experimental Protocol. Signaling intermediates required for NDMP formation are largely unexplored. cAMP was targeted as a potential signaling mechanism involved in NDMP formation. Peritoneal cells were isolated 24 H after CLP surgeries. […] After 24 H, NDMPs were enumerated and characterized by flow cytometry.

C57BL/6 mice = test: Intraperitoneal treatment of mice with TGA, LPS or PepG: peritoneal neutrophil recruitment and NDMP generation; type: in vivo; conditions: for neutrophil recruitment and NDMP generation/accumulation in the peritoneum: i.p. injection, peritoneal lavage 24 H after 3% TGA; for # NDMPs: peritoneal NDMPs after treatment; for # NDMPs / # Neuts: 3% TGA 1 mL i.p., PepG 1 mg i.p., LPS 100 μg i.p., CLP 75% ligation/23 gauge puncture; for # Neuts: peritoneal neutrophils after treatment
Protocol: Low-endotoxin NDMPs were generated and used to assess host response during sepsis. More specifically, mice were treated with intraperitoneal injections of 3% thioglycolate (hereinafter, “TGA”), LPS, or petidylglycan (hereinafter “PepG”). Peritoneal neutrophil recruitment, NDMPs, and endotoxin associated with NDMPs were quantified.
Experimental Protocol. The ability of TGA to generate microparticles in vivo was investigated. Male C57BL/6 mice between 6 and 8 weeks of age (about 20 to 28 g) were injected in the peritoneum with 1 mL 3% thioglycolate (Sigma, St. Louis, Mo.) or with vehicle. Peritoneal lavage was performed 24 H after injection. Peritoneal cells were pelleted after a 10-minute 450×g centrifugation. The supernatant was then centrifuged for 10 minutes at 9,900×g to remove platelets. The platelet-free supernatant was centrifuged for 20 minutes at 16,000×g in order to pellet MPs. The MP pellet was resuspended in 500 μL sterile PBS and centrifuged for 20 minutes at 16,000×g. The MP pellet was then resuspended in 100 μL sterile PBS for analysis.
Analysis of cell surface antigen expression was performed on peritoneal lavage fluid. Flow cytometry data acquisition and analysis were performed on an LSR II using FACS Diva software (BD Biosciences). Antibodies used included: Ly-6G (Clone: 1A8, BioLegend), LY-6C (Clone: AL-21, BD Biosciences), CD11b (Clone: M1/70, BioLegend), Ter-119 (Clone: Ter-119, BioLegend), CD41 (Clone: MWReg30, BioLegend), CD105 (Clone: MJ7/18, BioLegend), Annexin V (BioLegend), and counting beads (Invitrogen, Grand Island, N.Y.). As shown in FIG. 19(A), forward and side scatter flow cytometry were initially performed on the lavage to both characterize and enumerate microparticles. A gate was created using 0.3-1.1 μm beads to isolate the MPs in the sample.
Vehicle mice and TGA-treated mice were stained with neutrophil specific Ly6G and annexinV antibodies. Total NDMPs from TGA-treated mice and vehicle mice were then enumerated.

Molecule: O=C(Nc1ncnc2c1ncn2[C@@H]1O[C@@H]2COP(=O)(O)OC2C1O)c1ccccc1 (stereo in doubt) [6-Bnz-cAMP]
- NDMP numbers compared to cells cultured without agent (peritoneal cells): inhibited NDMP formation

Molecule: CC(C)(C)c1ccc(S(=O)(=O)/C=C/C#N)cc1 [BAY 11-7085]
- NDMP generation after activation of TNFr1, TNFr2 or both (Mouse neutrophils; WT or TNFr1−/− neutrophils, 25 ng/mL rmTNF-α or rhTNF-α, 20 μM BAY 11-7085, 1 h): completely abrogates NDMP generation

Molecule: CO[C@@H]1[C@@H]2OP(=O)(O)OC[C@H]2O[C@H]1n1c(Sc2ccc(Cl)cc2)nc2c(N)ncnc21 [EPAC, 8-CPT-2Me-cAMP]
- NDMP numbers compared to cells cultured without agent (peritoneal cells): did not affect NDMP numbers

Molecule: Cl.Cl.O=S(=O)(NCCNC/C=C/c1ccc(Br)cc1)c1cccc2cnccc12 [H89]
- NDMP numbers compared to cells cultured without agent (peritoneal cells): did not

Molecule: Cl.O=S(=O)(c1cccc2c(I)cccc12)N1CCCNCC1 [ML7]
- decrease in NDMP generation when compared to cells cultured without inhibitor (peritoneal cells; 24 H culture): 75%

Molecule: CCCCC[C@H](O)/C=C/[C@H]1[C@H](O)CC(=O)[C@@H]1C/C=C\CCCC(=O)O [PGE2, Prostaglandin E2]
- NDMP numbers compared to cells cultured without agent (peritoneal cells): decrease in the total number of NDMPs

Molecule: C[C@@H](N)[C@H]1CC[C@H](C(=O)Nc2ccncc2)CC1 [Y27632]
- NDMP numbers compared to cells cultured without agent (peritoneal cells): decrease in the total number of NDMPs

Molecule: CC[C@H](C)[C@H](NC(=O)OCc1ccccc1)C(=O)N[C@@H](CCC(=O)OC)C(=O)N[C@H](C(=O)N[C@@H](CC(=O)OC)C(=O)CF)[C@@H](C)O [Z-IETD-FMK] (Cbz-IE(OMe)TD(OMe)-CH2F)
- decrease in NDMP generation when compared to cells cultured without inhibitor (peritoneal cells; 24 H culture): 37%
- NDMPs after TNF-α plus caspase 8 inhibitor vs TNF-α alone (Mouse neutrophils; 30 μM Z-IETD-FMK, 1 h, listed as Caspase 8 inhibitor): sharply decreased but not entirely eliminated
- NDMPs after TNF-α plus caspase 8 inhibitor vs TNF-α alone (Mouse neutrophils; 30 μM Z-IETD-FMK, 1 h, listed as caspase 8 inhibitor): significant decrease in NDMPs
- microparticle generation after TNF-α plus caspase 8 inhibitor, only TNFr2 activated (Mouse neutrophils; neutrophils from TNFr1−/− mice, 25 ng/mL rmTNF-α, 30 μM Z-IETD-FMK, 1 h, listed as Caspase 8 inhibitor): did not alter NDMP numbers; also recorded: no decrease in microparticle generation

Molecule: COC(=O)CC[C@H](NC(=O)[C@H](CC(C)C)NC(=O)OCc1ccccc1)C(=O)N[C@@H](Cc1cnc[nH]1)C(=O)N[C@@H](CC(=O)OC)C(=O)CF [Z-LEHD-FMK] (Cbz-LE(OMe)HD(OMe)-CH2F)
- NDMP generation compared to cells cultured without inhibitor (peritoneal cells; Z-LEHD-FMK 30 μM, 24 H culture): no significant difference

Molecule: COC(=O)C[C@H](NC(=O)[C@H](C)NC(=O)[C@@H](NC(=O)OCc1ccccc1)C(C)C)C(=O)CF [Z-VAD-FMK] (Cbz-Val-Ala-Asp(OMe)-CH2F)
- decrease in NDMP generation when compared to cells cultured without inhibitor (peritoneal cells; 24 H culture): 37%

Molecule: lipopolysaccharide [LPS]
- NDMP formation from peritoneal cells ([1]; LPS 100 ng/mL vs PBS, 24 H, cells isolated 24 H after CLP): enhance NDMP formation
- increase in NDMPs from LPS-treated cells compared to spontaneous NDMP generation ([1]; LPS 100 ng/mL, 18 H, peritoneal lavage cells of CLP mice): ~60%
- neutrophil recruitment and NDMP generation/accumulation in the peritoneum (C57BL/6 mice): resulted in neutrophil recruitment and NDMP generation
- # NDMPs (C57BL/6 mice): 2.4 ×10^3
- # Neuts (C57BL/6 mice): 0.16 ×10^6

Molecule: peptidoglycan [PepG]
- neutrophil recruitment and NDMP generation/accumulation in the peritoneum (C57BL/6 mice): resulted in neutrophil recruitment and NDMP generation
- # NDMPs (C57BL/6 mice): 3.0 ×10^3
- # Neuts (C57BL/6 mice): 2.0 ×10^6

Molecule: thioglycolate [3% TGA]
- neutrophil recruitment and NDMP generation/accumulation in the peritoneum (C57BL/6 mice): greatest number of low endotoxin NDMPs
- neutrophil recruitment and NDMP generation/accumulation in the peritoneum (C57BL/6 mice; listed as TGA): resulted in neutrophil recruitment and NDMP generation; also recorded: robust accumulation of NDMPs
- # NDMPs (C57BL/6 mice): 35.1 ×10^3
- # Neuts (C57BL/6 mice): 6.9 ×10^6
